# Values quoted from earlier work as cited in patent EP0331593A1, “Process for the preparation of hydroxybenzaldehydes by hydrocarbonylation” (RHONE-POULENC CHIMIE, priority 1988, dated 1989).
# Like-named read-outs stand apart in the source and are kept apart here.
# Tests used:
# [1] = in water, generally 25°C
# [2] = phosphine
SMILES,pKa * (pka del'acide conjugué de l'amine tertiaire) ([1]; Tableau I),pKa * (pka de l'acide conjugé de l'amine tertiaire) ([1]; Tableau II),pKa * (pka del'acide conjugué de l'amine tertiaire) ([1]; Tableau III),pKa * (pka de l'acide conjugé de l'amine tertiaire) ([1]; Tableau IV),pKa à 25°C [2]
"Cc1ccnc(C)c1 [Diméthyl-2,4 Pyridine]","6,99","6,99","6,99","6,99",–
"Cc1cccc(C)n1 [Diméthyl-2,6 Pyridine]","6,73","6,73",–,–,–
"Cc1ccncc1C [Diméthyl-3,4 Pyridine]","6,57","6,57",–,–,–
Cc1ccncc1 [Gamma Picoline],"6,02",–,–,–,–
c1cnccn1 [Pyrazine],"0,65",–,"0,65","0,65",–
c1ccc(P(c2ccccc2)c2ccccc2)cc1 [triphénylphosphine],–,–,–,–,"2,73"
Cc1cccc(P(c2cccc(C)c2)c2cccc(C)c2)c1 [tris(méthyl-3 phényl)phosphine],–,–,–,–,"3,3"
